Like-named read-outs stand apart in the source and are kept apart here.

The values that follow come from patent US10894032B2, “Microbial-relief composition” (Curazene, LLC, priority 2014, dated 2021).

In one assay the test system is Enterococcus. Put plainly: Example 6 infected decubitus ulcer of a patient. Format: in vivo, human. The settings on record: five days of antibiotic before the composition.
In a further assay the test system is mycobacteria marinum. Put plainly: Example 7 finger infection of a patient. Format: in vivo, human. The settings on record: eleven days of antibiotics before the composition. As for the experimental part: Action against Mycobacteria: A person with four-month long history of an infection on the posterior aspect of their right ring finger was treated. […] After failing two full courses of oral antibiotics, over the previous four months, the patient was given a third round of antibiotics, this time Clarythromycin, after their finger's condition had worsened.

A further assay deals with MRSA strains. The settings on record: averaged over three repeated experiments. The text has this: (§1) Bacterial strain: Two well characterized strains of methicillin-sensitive Staphylococcus aureus (MSSA) and methicillin-resistant Staphylococcus aureus (MRSA) were used. Specifically, experiments used ATCC 29213 (MSSA) and ATCC 43330 (MRSA), both beta-lactamase positive strains, which represent greater than 90% of the respective strains in the American population.
(§2) Petri dish preparation: A sterile cotton swab (American Scientific Products, McGraw Park, Ill.) was dipped into the cultures and used to swab the entire surface of 150×15 mm Petri dishes containing 75 ml of standard Mueller-Hinton agar. Two Petri dishes were inoculated with ATCC 29213 (MSSA and two Petri dishes with ATCC 43330 (MRSA). One Petri dish of each group (MSSA and MRSA) was set aside as the controls. The other two Petri dishes (MSSA and MRSA) were divided up in quadrants, and each quadrant was labeled B, C, D or E.
(§3) Application: Holding each bottle vertically, the microbiologist added a single drop from each bottle (B, C, D, or E) to the corresponding quadrant of the labeled Petri dish. All four Petri dishes were placed in an incubator overnight at 37 degrees Celsius, and examined 20 hours later. Petri dishes were compared to the corresponding controls, and zones of inhibition were characterized by the largest point of diameter of the circle or oval.

Assay [1] deals with ATCC 29213 (MSSA) and ATCC 43330 (MRSA). As for the experimental part:
Testing was conducted at a pathology laboratory certified for microbiology testing by a physician and a microbiologist. A double blind, randomized controlled experiment was conducted to evaluate the SBDS surfactant against bacteria in Petri dishes.
as §1, §2
To evaluate a wider range of surfactant concentrations, cleanser compositions were prepared as follows: A surfactant solution and a stock solution were mixed in various ratios to produce four skin cleanser solutions having four different surfactant concentrations of […], weight-to-weight. The amount of other ingredients in each of the four skin cleanser solutions was less than 1% concentration weight-to-weight.
Cleanser Testing: Four samples of the cleanser with the four different concentrations of the surfactant […] were placed into four separate, unmarked bottles. Each bottle was randomly labeled (B, C, D, or E), and the microbiologist conducting the study was unaware of any difference between the solutions.
as §3

The test system of a further assay is MRSA. The settings on record: human, in vivo; cited from earlier work.

Description for Enterococcus: Both swabs were sent to the lab and a count of colony-forming units (CFUs) was ordered.

For `O=C(O)c1cn(C2CC2)c2cc(N3CCNCC3)c(F)cc2c1=O` [ciprofloxacin], the “course of ulcer on antibiotic” value with Enterococcus is given as “showed signs of worsening”.
For the molecule `CC[C@H]1OC(=O)[C@H](C)[C@@H](O[C@H]2C[C@@](C)(OC)[C@@H](O)[C@H](C)O2)[C@H](C)[C@@H](O[C@@H]2O[C@H](C)C[C@H](N(C)C)[C@H]2O)[C@](C)(OC)C[C@@H](C)C(=O)[C@H](C)[C@@H](O)[C@]1(C)O` [Clarythromycin], the “change in symptoms on antibiotic” value in the assay on mycobacteria marinum is listed as “no change in symptoms”.
As to “Sodium Dodecylbenzene Sulfonate [surfactant]”, the “Diameter of Zone of Inhibition (mm)” value was “No Change” with MRSA strains (Surfactant conc. 1.00% (vol. %)); 35.3 mm with MRSA strains (Surfactant conc. 2.30% (vol. %)); 33.7 mm with MRSA strains (Surfactant conc. 2.50% (vol. %)); 32.7 mm in the assay on MRSA strains (Surfactant conc. 2.80% (vol. %)); 37.3 mm with MRSA strains (Surfactant conc. 3.30% (vol. %)); 39.3 mm with MRSA strains (Surfactant conc. 4.00% (vol. %)). The “Diameter of Zone of Inhibition (mm)” value in the assay with MRSA strains (Surfactant conc. 4.90% (vol. %)) was determined as 41.7 mm; with MRSA strains (Surfactant conc. 6.50% (vol. %)) it was 39 mm; in the assay with MRSA strains (Surfactant conc. 9.30% (vol. %)), 34 mm; with MRSA strains (Surfactant conc. 14.80% (vol. %)), 42.3 mm. In addition, the difference from controls result in assay [1] (surfactant concentration 0.5%, single drop, 20 hours, 37 degrees Celsius) is given as “no difference between the controls”. The “inhibition of colony forming units (CFUs)” value in assay [1] (surfactant concentration 1%) and in assay [1] (surfactant concentration 2%) was “approximately 50%” throughout. For the same molecule, in assay [1] (surfactant concentration 8%), the “diameter of circle of clear inhibition” value is “approximately 40 mm”.
For the molecule `CN[C@H](CC(C)C)C(=O)N[C@H]1C(=O)N[C@@H](CC(N)=O)C(=O)N[C@H]2C(=O)N[C@H]3C(=O)N[C@H](C(=O)N[C@H](C(=O)O)c4cc(O)cc(O)c4-c4cc3ccc4O)[C@H](O)c3ccc(c(Cl)c3)Oc3cc2cc(c3O[C@@H]2O[C@H](CO)[C@@H](O)[C@H](O)[C@H]2O[C@H]2C[C@](C)(N)[C@H](O)[C@H](C)O2)Oc2ccc(cc2Cl)[C@H]1O` [Vancomycin], in the assay with MRSA, the “share of MRSA patients for whom usually effective” value is “about 40%”.
